What is called Ki is a dissociation constant, usually derived from enzyme kinetics or from competition with a known ligand. Higher therefore signals a looser hold on the target.

Data on twelve molecules can be found in patent US8435980B2 (AbbVie Inc., priority 2009, dated 2013).

T1 sequence (O00311 whole entry): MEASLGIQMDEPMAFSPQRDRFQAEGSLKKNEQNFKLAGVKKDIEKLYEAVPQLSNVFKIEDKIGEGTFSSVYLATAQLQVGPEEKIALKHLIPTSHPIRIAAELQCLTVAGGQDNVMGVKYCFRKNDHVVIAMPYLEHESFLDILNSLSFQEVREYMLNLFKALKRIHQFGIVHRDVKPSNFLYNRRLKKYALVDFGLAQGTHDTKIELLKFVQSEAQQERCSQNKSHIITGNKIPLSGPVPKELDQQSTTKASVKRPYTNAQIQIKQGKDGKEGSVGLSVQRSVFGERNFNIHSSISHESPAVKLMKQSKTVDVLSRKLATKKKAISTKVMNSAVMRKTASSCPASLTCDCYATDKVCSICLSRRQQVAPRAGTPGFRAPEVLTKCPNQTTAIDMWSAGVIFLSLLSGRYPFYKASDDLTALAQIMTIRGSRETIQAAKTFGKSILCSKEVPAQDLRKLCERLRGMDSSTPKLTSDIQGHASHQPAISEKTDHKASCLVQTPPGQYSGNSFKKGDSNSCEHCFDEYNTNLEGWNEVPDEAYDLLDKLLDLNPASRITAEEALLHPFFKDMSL
T1 sequence (Q9UBU7 whole entry partner): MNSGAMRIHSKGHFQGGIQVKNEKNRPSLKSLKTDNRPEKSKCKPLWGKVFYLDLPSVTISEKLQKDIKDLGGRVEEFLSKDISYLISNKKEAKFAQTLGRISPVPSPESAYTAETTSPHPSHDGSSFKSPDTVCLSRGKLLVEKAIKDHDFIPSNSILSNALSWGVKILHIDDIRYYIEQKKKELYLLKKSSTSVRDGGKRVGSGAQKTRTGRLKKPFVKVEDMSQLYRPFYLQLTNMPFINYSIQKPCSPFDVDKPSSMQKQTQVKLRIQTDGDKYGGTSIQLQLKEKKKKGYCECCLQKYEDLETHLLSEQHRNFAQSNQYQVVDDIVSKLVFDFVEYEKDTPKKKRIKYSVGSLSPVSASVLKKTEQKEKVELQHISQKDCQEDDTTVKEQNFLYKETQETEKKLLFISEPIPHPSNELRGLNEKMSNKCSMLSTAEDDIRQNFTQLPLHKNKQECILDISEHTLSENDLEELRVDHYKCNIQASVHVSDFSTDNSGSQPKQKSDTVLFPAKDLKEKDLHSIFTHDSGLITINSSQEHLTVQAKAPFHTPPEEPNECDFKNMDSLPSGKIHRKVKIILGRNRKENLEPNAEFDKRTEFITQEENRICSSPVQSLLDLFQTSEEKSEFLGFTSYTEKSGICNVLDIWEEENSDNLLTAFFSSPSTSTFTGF

This test addresses T1, Cdc7 (BEV coexpressed huCDC7/DBF4) (Homo sapiens, UniProt O00311).
T1 construct: made in house; host or cells: BEV (baculovirus expression vector) co-expression; insect cells are implied but no cell line is named
Briefly: Cdc7 enzyme inhibition assay ([33P]ATP, biotinylated peptide substrate, FlashPlate). The test is classed as biochemical. The settings on record: Table 3; enzyme inhibition data (Ki). As for the experimental part:
Cdc7 (BEV coexpressed huCDC7/DBF4) is prepared internally. Cdc7 assays are conducted as follows with final concentrations as listed. […] Reactions are quenched after 1 hr by the addition of 90 μL stop buffer (50 mM EDTA, 2M NaCl). […] (Ki) for exemplary compounds.
`Clc1cc(-c2c[nH]c3ncccc23)cc(Nc2ccc(N3CCCCC3)cc2)n1` [Example 420, 6-chloro-N-[4-(piperidin-1-yl)phenyl]-4-(1H-pyrrolo[2,3-b]pyridin-3-yl)pyridin-2-amine] registered a Ki of less than 10 nM.
The molecule `COC(=O)c1cnc2[nH]cc(-c3cc(Cl)nc(NC4CCCCC4)c3)c2c1` [Example 421, methyl 3-[2-chloro-6-(cyclohexylamino)pyridin-4-yl]-1H-pyrrolo[2,3-b]pyridine-5-carboxylate] gave a Ki of less than 10 nM.
Regarding `O=C(CN1CCN(CCO)CC1)N[C@H]1CC[C@H](Nc2cc(-c3c[nH]c4ncccc34)cc(Cl)n2)CC1` [Example 422, N-(trans-4-{[6-chloro-4-(1H-pyrrolo[2,3-b]pyridin-3-yl)pyridin-2-yl]amino}cyclohexyl)-2-[4-(2-hydroxyethyl)piperazin-1-yl]acetamide], the Ki is less than 10 nM.
`Cc1cccc(C)c1N1CCN(CC(=O)N[C@H]2CC[C@H](Nc3cc(-c4c[nH]c5ncccc45)cc(Cl)n3)CC2)CC1` [Example 423, N-(trans-4-{[6-chloro-4-(1H-pyrrolo[2,3-b]pyridin-3-yl)pyridin-2-yl]amino}cyclohexyl)-2-[4-(2,6-dimethylphenyl)piperazin-1-yl]acetamide] came in with a Ki of less than 10 nM.
Take `COc1cnc2[nH]cc(-c3cc(Cl)nc(NC4CCC(CC5CCC(NC6CCC6)CC5)CC4)c3)c2c1` (stereo not drawn) [Example 424, 6-chloro-N-(4-{[4-(cyclobutylamino)cyclohexyl]methyl}cyclohexyl)-4-(5-methoxy-1H-pyrrolo[2,3-b]pyridin-3-yl)pyridin-2-amine]: the Ki is less than 10 nM.
In the case of `CCC(CC)NC1CCC(CC2CCC(Nc3cc(-c4c[nH]c5ncc(OC)cc45)cc(Cl)n3)CC2)CC1` (stereo not drawn) [Example 425, 6-chloro-4-(5-methoxy-1H-pyrrolo[2,3-b]pyridin-3-yl)-N-(4-{[4-(pentan-3-ylamino)cyclohexyl]methyl}cyclohexyl)pyridin-2-amine] it was less than 10 nM; in that of `COc1cnc2[nH]cc(-c3cc(Cl)nc(NC4CCC(CC5CCC(NCC6CCCC6)CC5)CC4)c3)c2c1` (stereo not drawn) [Example 426, 6-chloro-N-[4-({4-[(cyclopentylmethyl)amino]cyclohexyl}methyl)cyclohexyl]-4-(5-methoxy-1H-pyrrolo[2,3-b]pyridin-3-yl)pyridin-2-amine], less than 10 nM; in that of `N[C@H]1CC[C@H](Nc2cc(-c3c[nH]c4ncc(OCCc5ccccn5)cc34)cc(Cl)n2)CC1` [Example 427, trans-N-(6-chloro-4-{5-[2-(pyridin-2-yl)ethoxy]-1H-pyrrolo[2,3-b]pyridin-3-yl}pyridin-2-yl)cyclohexane-1,4-diamine], less than 10 nM.
The molecule `CC(C)COc1cnc2[nH]cc(-c3cc(Cl)nc(N[C@H]4CC[C@H](N)CC4)c3)c2c1` [Example 428, trans-N-{6-chloro-4-[5-(2-methylpropoxy)-1H-pyrrolo[2,3-b]pyridin-3-yl]pyridin-2-yl}cyclohexane-1,4-diamine] returned a Ki of less than 10 nM.
`O=C(N[C@H]1CC[C@H](Nc2cc(-c3c[nH]c4ncccc34)cc(Cl)n2)CC1)C1CN(Cc2ccccn2)C1` [Example 429, N-(trans-4-{[6-chloro-4-(1H-pyrrolo[2,3-b]pyridin-3-yl)pyridin-2-yl]amino}cyclohexyl)-1-(pyridin-2-ylmethyl)azetidine-3-carboxamide] gave a Ki of less than 10 nM.
The figure for `COc1cnc2[nH]cc(-c3cc(Cl)nc(N[C@H]4CC[C@H](NC(=O)C(F)(F)F)CC4)c3)c2c1` [Example 430, N-(trans-4-{[6-chloro-4-(5-methoxy-1H-pyrrolo[2,3-b]pyridin-3-yl)pyridin-2-yl]amino}cyclohexyl)-2,2,2-trifluoroacetamide] is less than 10 nM.
Turning to `COc1ccc(-c2cnc3[nH]cc(-c4cc(Cl)nc(NC5CCCCC5)c4)c3c2)cn1` [Example 431, 6-chloro-N-cyclohexyl-4-[5-(6-methoxypyridin-3-yl)-1H-pyrrolo[2,3-b]pyridin-3-yl]pyridin-2-amine], the Ki is less than 10 nM.
